Series [1] deals with SHIV162P3. Particulars: TZM-bl cells; cited from earlier work. An excerpt:
(§1) Similarly, HEC gel formulated cyanovirin was s ...

The next series concerns SHIV. The following applies: cited from earlier work.
Text: as §1

A further series concerns HIV-1 VI820. Briefly: TZM-bl antiviral assay, VI820. The following applies: Human immunodeficiency virus 1; Table 2; A-X4R5; 10^-3 MOI, TZM-bl cells, 48 h; mean of at least 2 independent experiments, triplicates. It counts as cell-based. Here is the method:
(§2) The IC50 of the various mCD4-conjugates were measured in TZM-bl cells (NIH AIDS Reagent Program, Germantown, MD 20874, US). This cell line expresses high densities of CD4, CCR5 and CXCR4. It contains a luciferase reporter gene under control of HIV LTR, which will be transcribed and translated into luciferase protein, if the cells get infected with HIV and start producing Tat. Briefly, 50 μl of TZM-bl cells (1 × 10^5 cells/mL) supplemented with 30 μg/mL DEAE dextran were incubated with a 50 μl of a 10-fold serial dilution of the compounds under investigation in 96-well flat bottom plates, prior to inoculation with 50 μl of various viruses (see Tables & and 2; 50, 100 or 200 TCID50 was used depending on the virus). As a positive control, 50 μl of compound-free medium was used and as a negative control, 100 μl of medium was added to 100 μl of TZM-bl cells. All conditions were done in triplicates. The plates were incubated for 48 hours (37 °C, 5% CO2). […] Next, the luciferase activity was measured using a TriStar LB941 luminometer (Berthold Technologies GmbH & Co. KG., Bad Wildbad, Germany) and expressed in relative light units (RLU) as a percentage of positive control wells. IC50 were calculated in GraphPad Prism 5.03 using non-linear regression (GraphPad Software, San Diego, CA, USA).

The next series has as its system HIV-1 Bal. The series is described as follows: TZM-bl antiviral assay, Bal. The class given is cell-based. Particulars: Human immunodeficiency virus 1, BAL; Table 2; B-R5; 10^-3 MOI, TZM-bl cells, 48 h; mean of at least 2 independent experiments, triplicates. As to the method:
as §2

Another series has as its system HIV-1 IIIB. The series is described as follows: TZM-bl antiviral assay, IIIB. The class given is cell-based. Particulars: Human immunodeficiency virus 1, IIIB; Table 2; B-X4; 10^-3 MOI, TZM-bl cells, 48 h; mean of at least 2 independent experiments, triplicates. As to the method:
as §2

Another series deals with HIV-1 MN. Briefly: TZM-bl antiviral assay, MN. Particulars: Human immunodeficiency virus 1; Table 2; B-X4; 10^-3 MOI, TZM-bl cells, 48 h; mean of at least 2 independent experiments, triplicates. The class given is cell-based. Here is the method:
as §2

The test system of a further series is HIV-1 SF162. The series is described as follows: TZM-bl antiviral assay, SF162. The class given is cell-based. Particulars: Human immunodeficiency virus 1; Table 2; B-R5; 10^-3 MOI, TZM-bl cells, 48 h; mean of at least 2 independent experiments, triplicates. Here is the method:
as §2

In series [2] the test system is SHIV162P3. Briefly: TZM-bl antiviral assay, SHIV162P3. It counts as cell-based, SHIV. The following applies: Table 2; B-R5; 10^-3 MOI, TZM-bl cells, 48 h; mean of at least 2 independent experiments, triplicates. As to the method:
as §2

Another series concerns HIV-1 Ca10-3 (CRF01). The series is described as follows: microbe, parasite or virus in culture. It counts as cell-based. Particulars: Human immunodeficiency virus 1, TZM-bl, 48 h, read-out: IC50 Ca10-3 (CRF01). Here is the method: (§3) The IC50 of the various mCD4-conjugates were measured in TZM-bl cells (NIH AIDS Reagent Program, Germantown, MD 20874, US). This cell line expresses high densities of CD4, CCR5 and CXCR4. It contains a luciferase reporter gene under control of HIV LTR, which will be transcribed and translated into luciferase protein, if the cells get infected with HIV and start producing Tat. Briefly, 50 μl of TZM-bl cells (1 × 10^5 cells/mL) supplemented with 30 μg/mL DEAE dextran were incubated with a 50 μl of a 10-fold serial dilution of the compounds under investigation in 96-well flat bottom plates, prior to inoculation with 50 μl of various viruses (see Tables & and 2; 50, 100 or 200 TCID50 was used depending on the virus). As a positive control, 50 μl of compound-free medium was used and as a negative control, 100 μl of medium was added to 100 μl of TZM-bl cells. All conditions were done in triplicates. The plates were incubated for 48 hours (37 °C, 5% CO2). Subsequently, 120 μL of supernatants were removed, 75 μl of the luciferase substrate Steadylite (Perkin Elmer, Life Sciences, Zaventem, Belgium) were added to the wells and the plates were incubated at room temperature on an orbital shaker for 10 minutes. Next, the luciferase activity was measured using a TriStar LB941 luminometer (Berthold Technologies GmbH & Co. KG., Bad Wildbad, Germany) and expressed in relative light units (RLU) as a percentage of positive control wells. IC50 were calculated in GraphPad Prism 5.03 using non-linear regression (GraphPad Software, San Diego, CA, USA).

A further series concerns HIV-1 MP568 (CRF02). The series is described as follows: microbe, parasite or virus in culture. The class given is cell-based. Particulars: Human immunodeficiency virus 1, TZM-bl, 48 h, read-out: IC50 MP568 (CRF02). As to the method: as §3
The next series concerns HIV-1 VI1888 (CRF01). The series is described as follows: microbe, parasite or virus in culture. It counts as cell-based. Particulars: Human immunodeficiency virus 1, TZM-bl, 48 h, read-out: IC50 VI1888 (CRF01). As to the method:
as §3

For another series, the system named is HIV-1 VI824. The series is described as follows: microbe, parasite or virus in culture. It counts as cell-based. Particulars: Human immunodeficiency virus 1, TZM-bl, 48 h, read-out: IC50 VI824. As to the method:
as §3

For the next series, the system named is HIV-1 p246F10. The series is described as follows: microbe, parasite or virus in culture. It counts as cell-based. The following applies: Human immunodeficiency virus 1, TZM-bl, 48 h, read-out: IC50 P246F10. As to the method:
as §3

A further series deals with HIV-1 pREJO.c/2864 cl2. Briefly: microbe, parasite or virus in culture. The class given is cell-based. The following applies: Human immunodeficiency virus 1, TZM-bl, 48 h, read-out: IC50 pREJO.c/2864 cl2. As to the method: as §3
The subject of a further series is HIV-1 pTHRO.c/2626. The series is described as follows: microbe, parasite or virus in culture. The class given is cell-based. Particulars: Human immunodeficiency virus 1, TZM-bl, 48 h, read-out: IC50 pTHRO.c/2626. As to the method: as §3
The next series relates to HIV-1 pWITO.c/2474. The series is described as follows: microbe, parasite or virus in culture. It counts as cell-based. Particulars: Human immunodeficiency virus 1, TZM-bl, 48 h, read-out: IC50 pWITO.c/2474. As to the method: as §3
A further series relates to HIV-1 pZM247Fv2. Briefly: microbe, parasite or virus in culture. It counts as cell-based. The following applies: Human immunodeficiency virus 1, TZM-bl, 48 h, read-out: IC50 pZM247Fv2. Here is the method: as §3
Another series concerns HIV-1 VI829. The series is described as follows: TZM-bl antiviral assay, VI829. Particulars: Human immunodeficiency virus 1; Table 2; C-R5; 10^-3 MOI, TZM-bl cells, 48 h; mean of at least 2 independent experiments, triplicates. It counts as cell-based. Here is the method: as §2
The next series concerns TZM-bl cells. The series is described as follows: WST-1 cytotoxicity assay. The class given is cell-based. The following applies: Table 2, 50% cytotoxic concentration, WST-1, 48 h. As to the method:
The water soluble tetrazolium-1 (WST-1) cell proliferation assay is based on the cleavage of the tetrazolium salt WST-1 to a formazan dye by a complex cellular mechanism. Because this bioreduction is dependent on the glycolytic production of NAD(P)H in viable cells, the amount of formazan dye formed is correlates directly to the number of viable cells in a culture. Quantification is done by measuring absorbance at 450 nm in a multiwell plate reader. TZMbl cells (10^4 cells/well) were plated in a 96-well plate and a serial dilution of compound was added. 48 h later, cell proliferation reagent was added and cell viability was measured compared to untreated control cultures. Cell viability was plotted against the compound concentration and non-linear regression analysis was performed to calculate the 50% cytotoxic concentration (CC50).
Background: Tetrazolium assays rely on reduction of a dye to a coloured formazan, in cell work by metabolically active cells.

The subject of series [3] is HIV strains from different subtypes. The series is described as follows: TZM-bl antiviral assay, whole panel of strains. The class given is cell-based, HIV-1. Particulars: Human immunodeficiency virus 1, TZM-bl, read-out: active concentration across the panel. As to the method:
as §2

The next series has as its system HIV-1. Particulars: vaginal gel formulation (Tenofovir) or vaginal ring (Dapivirin); cited from earlier work. Here is the method:
Microbicides offer distinct advantages as their use should reduce side effects associated with systemic treatment and they could prevent the establishment of viral founder populations. Up to now several molecules targeting the attachment and entry of HIV were tested in clinical trials, including surfactants, such as nonoxynol–9 and C31G that disrupt the viral lipid envelope and non-specific polyanions, such as carrageenan, cellulose sulfate, as well as a sulfonated naphthalene derivative (PRO2000), presumably mimicking heparan sulfate (HS) and blocking virus-cell interactions. ...

The mark [4] stands for this setting: HEC gel formulated, applied at 0.5 to 2 mM.

The values below come from paper PMC5056392, “CD4-mimetic sulfopeptide conjugates display sub-nanomolar anti-HIV-1 activity and protect macaques against a SHIV162P3 vaginal challenge” (Scientific Reports, 2016).

Like-named read-outs stand apart in the source and are kept apart here.

The CC50 is the concentration giving 50% cytotoxicity.

As to `COc1ccnc2[nH]cc(C(=O)C(=O)N3CCN(C(=O)c4ccccc4)C[C@H]3C)c12` [BMS-378806], the IC50 with SHIV162P3 [1] was 5.5 nM. Moreover, the protection in the series with SHIV (administered at 5.5 mM) is reported as 75%.

Regarding `Cc1cc(C)c(Nc2ccnc(Nc3ccc(C#N)cc3)n2)c(C)c1` [TMC120 Dapivirine, Dapivirine], the IC50 is 2 nM in the series with HIV-1 VI820; 1.7 nM with HIV-1 Bal; 0.84 nM with HIV-1 IIIB; 1.5 nM in the series with HIV-1 MN; 1.3 nM in the series with HIV-1 SF162; more than 1000 nM in the series on SHIV162P3 [2]. The IC50 in the series with HIV-1 Ca10-3 (CRF01) amounted to 1.2 nM; in the series on HIV-1 MP568 (CRF02), 1.1 nM; in the series with HIV-1 VI1888 (CRF01), 2.1 nM; in the series on HIV-1 VI824, 1.2 nM; in the series on HIV-1 p246F10, 1.4 nM; in the series with HIV-1 pREJO.c/2864 cl2, 1.6 nM. Besides, the IC50 in the series with HIV-1 pTHRO.c/2626 is 1.9 nM; in the series on HIV-1 pWITO.c/2474, 1.1 nM; in the series with HIV-1 pZM247Fv2, 2.3 nM; in the series with HIV-1 VI829 it was 1.3 nM; in [3], 1 to 2 nM. Moreover, the CC50 in the series with TZM-bl cells came to 2524 nM. Moreover, in the series on HIV-1, the “reduction in HIV-1 acquisition” value is “up to 40%”.

For `C[C@H](Cn1cnc2c(N)ncnc21)OCP(=O)(O)O` [Tenofovir], in the series on HIV-1, the “reduction in HIV-1 acquisition” value was “up to 40%”.

For the molecule maraviroc, the protection with SHIV (500 μM intravaginally) is listed as 50%. Besides, in the series on SHIV (6 mM intravaginally), the macaques remaining uninfected is 6 of 7.

B1: cyanovirin: HEC gel formulated cyanovirin (protein, UniProt P81180 1-101, looked up)
Cyanovirin-N: LGKFSQTCYNSAIQGSVLTSTCERTNGGYNTSSIDLNSVIENVDGSLKWQPSNFIETCRNTQLAGSSELAAECKTRAQQFVSTKINLDDHIANIDGTLKYE
modifications: HEC gel formulation
Regarding B1, in the series with SHIV (setting [4]), the animals protected was 5 out of 6 and the protection was 83%.
